Experimental data: patent publication US11434242B2, “Dopamine-b-hydroxylase inhibitors” (BIAL-PORTELA & Cª, S.A., priority 2017, dated 2022)
Marks after values point to notes of the source that are not given here.

Target: T1, Dopamine beta hydroxylase (Homo sapiens, UniProt P09172)
T1 construct: 125 μl of plasma; tissue Instituto Português do Sangue Transplantação; host or cells: human plasma from healthy donors
T1 sequence (P09172 40-617 limits assumed): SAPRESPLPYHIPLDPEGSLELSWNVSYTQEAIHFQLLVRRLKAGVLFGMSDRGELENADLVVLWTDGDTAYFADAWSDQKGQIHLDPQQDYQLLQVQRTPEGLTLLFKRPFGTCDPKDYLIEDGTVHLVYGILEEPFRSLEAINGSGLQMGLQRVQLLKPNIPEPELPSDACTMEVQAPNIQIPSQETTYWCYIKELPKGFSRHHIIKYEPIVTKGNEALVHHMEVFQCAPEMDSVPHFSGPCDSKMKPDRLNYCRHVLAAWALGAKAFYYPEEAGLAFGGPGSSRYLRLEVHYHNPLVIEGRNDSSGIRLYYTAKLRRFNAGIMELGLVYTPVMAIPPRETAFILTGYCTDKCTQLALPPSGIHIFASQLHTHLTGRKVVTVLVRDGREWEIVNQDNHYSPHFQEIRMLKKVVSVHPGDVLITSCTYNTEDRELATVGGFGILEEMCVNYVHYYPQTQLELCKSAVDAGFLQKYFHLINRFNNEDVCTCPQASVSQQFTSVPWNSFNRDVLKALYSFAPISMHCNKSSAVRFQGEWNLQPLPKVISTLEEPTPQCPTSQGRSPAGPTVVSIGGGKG
Assay: Dopamine beta hydroxylase activity in human plasma
Type: biochemical
Details: for Plasma (0.01 μM), activity in % of control / Plasma (0.01 μM), activity in % of control, re-test (asterisked): inhibitor 0.01 μM; for Plasma (0.1 μM), activity in % of control / Plasma (0.1 μM), activity in % of control, re-test (asterisked): inhibitor 0.1 μM; for Plasma (0.01 μM), activity in % of control, re-test (asterisked) / Plasma (0.1 μM), activity in % of control, re-test (asterisked): re-tested under the same experimental conditions, asterisked data believed to be correct
Outline: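 Octopamine production from tyramine over 45 min at 37° C, measured photometrically at 330 nm after SCX extraction and periodate oxidation against an octopamine standard curve, indicates plasma DβH activity. Compounds tested at final 10, 100 and 1000 nM in human plasma, pH 5.0 cofactor buffer, 10 min preincubation; results as % of control.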

| SMILES | Plasma (0.01 μM), activity in % of control | Plasma (0.1 μM), activity in % of control | Plasma (0.01 μM), activity in % of control, re-test (asterisked) | Plasma (0.1 μM), activity in % of control, re-test (asterisked) |
| --- | --- | --- | --- | --- |
| Cn1c(CC(=O)NC2CCOCC2)c2n(c1=S)C[C@@H](c1c(F)ccc(F)c1F)C2 [Example 299, (R)-2-(2-methyl-6-(2,3,6-trifluorophenyl)-3-thioxo-2,5,6,7-tetrahydro-3H-pyrrolo[1,2-c]imidazol-1-yl)-N-(tetrahydro-2H-pyran-4-yl)acetamide] | 84.3 % of control | 48.4 % of control |  |  |
| Cn1c(CC(=O)NCC(F)(F)F)c2n(c1=S)C[C@@]1(c3cc(Cl)ccc3F)C[C@@H]21 [Example 300, 2-((5aS,6aR)-5a-(5-chloro-2-fluorophenyl)-2-methyl-3-thioxo-2,3,5,5a,6,6a-hexahydrocyclopropa[3,4]pyrrolo[1,2-c]imidazol-1-yl)-N-(2,2,2-trifluoroethyl)acetamide] | 57.0 % of control | 10.9 % of control |  |  |
| Cn1c(CC(=O)N[C@@H]2CCCOC2)c2n(c1=S)C[C@@]1(c3cc(Cl)ccc3F)C[C@@H]21 [Example 301, 2-((5aS,6aR)-5a-(5-chloro-2-fluorophenyl)-2-methyl-3-thioxo-2,3,5,5a,6,6a-hexahydrocyclopropa[3,4]pyrrolo[1,2-c]imidazol-1-yl)-N—((R)-tetrahydro-2H-pyran-3-yl)acetamide] | 49.1 % of control | 6.4 % of control |  |  |
| Cn1c(CC(=O)NC2CCCCC2)c2n(c1=S)C[C@@]1(c3cc(Cl)ccc3F)C[C@@H]21 [Example 302, 2-((5aS,6aR)-5a-(5-chloro-2-fluorophenyl)-2-methyl-3-thioxo-2,3,5,5a,6,6a-hexahydrocyclopropa[3,4]pyrrolo[1,2-c]imidazol-1-yl)-N-cyclohexylacetamide] | 62.7 % of control | 7.7 % of control |  |  |
| CC(C)NC(=O)Cc1c2n(c(=S)n1C)C[C@@]1(c3cc(Cl)ccc3F)C[C@@H]21 [Example 303, 2-((5aS,6aR)-5a-(5-chloro-2-fluorophenyl)-2-methyl-3-thioxo-2,3,5,5a,6,6a-hexahydrocyclopropa[3,4]pyrrolo[1,2-c]imidazol-1-yl)-N-isopropylacetamide] | 79.3 % of control | 34.7 % of control |  |  |
| Cn1c(CC(=O)NCC#N)c2n(c1=S)C[C@@]1(c3cc(Cl)ccc3F)C[C@@H]21 [Example 304, 2-((5aS,6aR)-5a-(5-chloro-2-fluorophenyl)-2-methyl-3-thioxo-2,3,5,5a,6,6a-hexahydrocyclopropa[3,4]pyrrolo[1,2-c]imidazol-1-yl)-N-(cyanomethyl)acetamide] | 51.9 % of control | 21.1 % of control |  |  |
| Cn1c(CC(=O)NCC#N)c2n(c1=S)C[C@@]1(c3cc(Br)ccc3F)C[C@@H]21 [Example 305, 2-((5aS,6aR)-5a-(5-bromo-2-fluorophenyl)-2-methyl-3-thioxo-2,3,5,5a,6,6a-hexahydrocyclopropa[3,4]pyrrolo[1,2-c]imidazol-1-yl)-N-(cyanomethyl)acetamide] | 61.2 % of control | 12.2 % of control |  |  |
| Cn1c(CC(=O)N[C@H]2CCOC2)c2n(c1=S)C[C@@]1(c3cc(Cl)ccc3F)C[C@@H]21 [Example 306, 2-((5aS,6aR)-5a-(5-chloro-2-fluorophenyl)-2-methyl-3-thioxo-2,3,5,5a,6,6a-hexahydrocyclopropa[3,4]pyrrolo[1,2-c]imidazol-1-yl)-N—((S)-tetrahydrofuran-3-yl)acetamide] | 70.6 % of control | 18.0 % of control |  |  |
| O=C(Cc1[nH]c(=S)n2c1[C@@H]1C[C@]1(c1cc(Br)ccc1F)C2)N[C@@H]1CCOC1 [Example 307, 2-((5aS,6aR)-5a-(5-bromo-2-fluorophenyl)-3-thioxo-2,3,5,5a,6,6a-hexahydrocyclopropa[3,4]pyrrolo[1,2-c]imidazol-1-yl)-N—((R)-tetrahydrofuran-3-yl)acetamide] | 73.9 % of control | 33.0 % of control |  |  |
| Cn1c(CC(=O)N[C@H]2CCOC2)c2n(c1=S)C[C@@]1(c3cc(Br)ccc3F)C[C@@H]21 [Example 308, 2-((5aS,6aR)-5a-(5-bromo-2-fluorophenyl)-2-methyl-3-thioxo-2,3,5,5a,6,6a-hexahydrocyclopropa[3,4]pyrrolo[1,2-c]imidazol-1-yl)-N—((S)-tetrahydrofuran-3-yl)acetamide] | 64.2 % of control | 12.8 % of control |  |  |
| Cn1c(CC(=O)N2CCCC2)c2n(c1=S)C[C@@]1(c3cc(Cl)ccc3F)C[C@@H]21 [Example 309, 2-((5aS,6aR)-5a-(5-chloro-2-fluorophenyl)-2-methyl-3-thioxo-2,3,5,5a,6,6a-hexahydrocyclopropa[3,4]pyrrolo[1,2-c]imidazol-1-yl)-1-(pyrrolidin-1-yl)ethan-1-one] | 86.2 % of control | 38.8 % of control |  |  |
| Cn1c(CC(=O)N2CCCC2)c2n(c1=S)C[C@@]1(c3cc(Br)ccc3F)C[C@@H]21 [Example 310, 2-((5aS,6aR)-5a-(5-bromo-2-fluorophenyl)-2-methyl-3-thioxo-2,3,5,5a,6,6a-hexahydrocyclopropa[3,4]pyrrolo[1,2-c]imidazol-1-yl)-1-(pyrrolidin-1-yl)ethan-1-one] | 65.9 % of control | 22.3 % of control |  |  |
| Cn1c(CC(=O)N2CCCCC2)c2n(c1=S)C[C@@]1(c3cc(Cl)ccc3F)C[C@@H]21 [Example 311, 2-((5aS,6aR)-5a-(5-chloro-2-fluorophenyl)-2-methyl-3-thioxo-2,3,5,5a,6,6a-hexahydrocyclopropa[3,4]pyrrolo[1,2-c]imidazol-1-yl)-1-(piperidin-1-yl)ethan-1-one] | 87.2 % of control | 21.6 % of control |  |  |
| Cn1c(CC(=O)N2CCCCC2)c2n(c1=S)C[C@@]1(c3cc(Br)ccc3F)C[C@@H]21 [Example 312, 2-((5aS,6aR)-5a-(5-bromo-2-fluorophenyl)-2-methyl-3-thioxo-2,3,5,5a,6,6a-hexahydrocyclopropa[3,4]pyrrolo[1,2-c]imidazol-1-yl)-1-(piperidin-1-yl)ethan-1-one] | 84.8 % of control | 51.7 % of control | 67.6* % of control | 15.0* % of control |
| Cn1c(CC(=O)NC2CCOCC2)c2n(c1=S)C[C@@]1(c3cc(Cl)ccc3F)C[C@@H]21 [Example 313, 2-((5aS,6aR)-5a-(5-chloro-2-fluorophenyl)-2-methyl-3-thioxo-2,3,5,5a,6,6a-hexahydrocyclopropa[3,4]pyrrolo[1,2-c]imidazol-1-yl)-N-(tetrahydro-2H-pyran-4-yl)acetamide] | 37.6 % of control | 9.6 % of control |  |  |
| Cn1c(CC(=O)NC2CCOCC2)c2n(c1=S)C[C@@]1(c3cc(Br)ccc3F)C[C@@H]21 [Example 314, 2-((5aS,6aR)-5a-(5-bromo-2-fluorophenyl)-2-methyl-3-thioxo-2,3,5,5a,6,6a-hexahydrocyclopropa[3,4]pyrrolo[1,2-c]imidazol-1-yl)-N-(tetrahydro-2H-pyran-4-yl)acetamide] | 80.2 % of control | 34.8 % of control | 41.9* % of control | 1.4* % of control |
| Cn1c(CC(=O)NCC(F)(F)F)c2n(c1=S)C[C@@H](c1c(F)c(F)cc(F)c1F)C2 [Example 315, (R)-2-(2-methyl-6-(2,3,5,6-tetrafluorophenyl)-3-thioxo-2,5,6,7-tetrahydro-3H-pyrrolo[1,2-c]imidazol-1-yl)-N-(2,2,2-trifluoroethyl)acetamide] | 67.0 % of control | 17.0 % of control | 94.0* % of control | 53.3* % of control |
| Cn1c(CC(=O)Nc2ncco2)c2n(c1=S)C[C@@H](c1c(F)c(F)cc(F)c1F)C2 [Example 316, (R)-2-(2-methyl-3-thioxo-6-(2,3,5,6-tetrafluorophenyl)-2,5,6,7-tetrahydro-3H-pyrrolo[1,2-c]imidazol-1-yl)-N-(oxazol-2-yl)acetamide] | 43.4 % of control | 4.5 % of control | 73.1* % of control | 16.6* % of control |
